{"source": "patent US20240210412A1", "about": "“SULFONYL-TRIAZOLE COMPOUNDS USEFUL AS LIGANDS AND INHIBITORS OF PROSTAGLANDIN REDUCTASE 2” (University of Virginia Patent Foundation, priority 2021, published 2024)", "assay_in_all_cases": "SILAC LC-MS ABPP", "format_in_all_cases": "cell-based", "conditions_in_all_cases": "25 μM 2 h, live DM93 cells", "key": {"Q9H223": {"target": "T1, Q9H223 (Homo sapiens, UniProt Q9H223)", "T1 construct": "endogenous in cells; host or cells: DM93 cells (SILAC), treated live; soluble proteome analysed", "T1 sequence (Q9H223 whole entry)": "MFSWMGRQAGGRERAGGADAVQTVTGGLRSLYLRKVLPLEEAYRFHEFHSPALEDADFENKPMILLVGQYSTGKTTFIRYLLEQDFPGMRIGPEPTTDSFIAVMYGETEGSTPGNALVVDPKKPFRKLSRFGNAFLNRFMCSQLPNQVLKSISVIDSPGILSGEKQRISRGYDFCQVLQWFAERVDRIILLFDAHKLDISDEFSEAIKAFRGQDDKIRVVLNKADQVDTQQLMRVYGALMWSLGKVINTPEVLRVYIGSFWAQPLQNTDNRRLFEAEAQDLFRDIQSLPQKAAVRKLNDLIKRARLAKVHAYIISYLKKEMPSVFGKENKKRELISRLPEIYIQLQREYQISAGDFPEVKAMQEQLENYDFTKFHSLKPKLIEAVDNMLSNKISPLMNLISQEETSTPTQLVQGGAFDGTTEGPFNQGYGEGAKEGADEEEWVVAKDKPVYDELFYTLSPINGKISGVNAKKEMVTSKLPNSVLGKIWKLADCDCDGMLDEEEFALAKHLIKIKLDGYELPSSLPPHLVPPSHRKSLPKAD", "in_short": "(§1)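 Competitive activity-based profiling in isotopically labelled DM93 melanoma cells. Heavy cells received 25 μM sulfonyl-triazole ligand and light cells vehicle, each for 2 h at 37 °C, before 2 h with 100 μM HHS-475. Labelled soluble proteins were tagged via CuAAC, combined, digested and enriched before LC-MS/MS.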"}, "Q92620": {"target": "T2, Q92620 (Homo sapiens, UniProt Q92620)", "T2 construct": "endogenous in cells; host or cells: DM93 cells (SILAC), live-cell treatment", "in_short": "as §1"}, "Q04837": {"target": "T3, Q04837 (Homo sapiens, UniProt Q04837)", "T3 construct": "performing SuTEx compound screening directly in cells; endogenous in cells; host or cells: DM93 cells (SILAC)", "T3 sequence (Q04837 17-148)": "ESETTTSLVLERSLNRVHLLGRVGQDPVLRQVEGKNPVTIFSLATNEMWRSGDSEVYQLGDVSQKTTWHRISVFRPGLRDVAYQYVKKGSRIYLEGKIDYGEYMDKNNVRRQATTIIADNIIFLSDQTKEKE", "in_short": "as §1"}, "Q06203": {"target": "T4, Q06203 (Homo sapiens, UniProt Q06203)", "T4 construct": "performing SuTEx compound screening directly in cells; endogenous in cells; host or cells: DM93 cells (SILAC)", "in_short": "as §1"}, "Q9BUJ2": {"target": "T5, Q9BUJ2 (Homo sapiens, UniProt Q9BUJ2)", "T5 construct": "endogenous in cells; host or cells: DM93 cells (SILAC), treated live; soluble proteome analysed", "T5 sequence (Q9BUJ2 whole entry)": "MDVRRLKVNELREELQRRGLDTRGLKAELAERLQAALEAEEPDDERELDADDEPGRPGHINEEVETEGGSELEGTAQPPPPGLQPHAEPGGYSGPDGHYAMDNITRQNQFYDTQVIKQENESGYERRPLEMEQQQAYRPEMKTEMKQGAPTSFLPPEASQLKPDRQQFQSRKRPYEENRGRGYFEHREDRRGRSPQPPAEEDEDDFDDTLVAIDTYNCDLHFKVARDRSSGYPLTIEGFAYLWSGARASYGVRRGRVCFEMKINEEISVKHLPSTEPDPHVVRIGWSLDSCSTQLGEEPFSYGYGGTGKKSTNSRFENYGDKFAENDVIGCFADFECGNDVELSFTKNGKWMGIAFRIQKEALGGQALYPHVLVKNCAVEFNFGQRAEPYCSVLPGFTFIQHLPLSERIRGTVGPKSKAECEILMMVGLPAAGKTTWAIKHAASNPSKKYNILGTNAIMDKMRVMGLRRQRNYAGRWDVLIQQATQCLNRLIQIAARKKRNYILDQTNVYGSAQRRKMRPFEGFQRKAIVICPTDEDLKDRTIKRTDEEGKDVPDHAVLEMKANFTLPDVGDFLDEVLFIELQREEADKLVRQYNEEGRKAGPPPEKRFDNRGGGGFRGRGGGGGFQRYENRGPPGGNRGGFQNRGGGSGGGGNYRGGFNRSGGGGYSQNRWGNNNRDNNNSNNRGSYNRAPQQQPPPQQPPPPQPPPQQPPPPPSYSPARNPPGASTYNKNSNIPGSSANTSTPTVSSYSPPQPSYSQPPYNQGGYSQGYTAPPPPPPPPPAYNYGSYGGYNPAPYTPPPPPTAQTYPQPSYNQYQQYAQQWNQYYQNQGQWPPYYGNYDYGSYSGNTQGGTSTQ", "in_short": "as §1"}, "P49585": {"target": "T6, P49585 (Homo sapiens, UniProt P49585)", "T6 construct": "endogenous in cells; host or cells: DM93 cells (SILAC)", "in_short": "as §1"}, "P53992": {"target": "T7, P53992 (Homo sapiens, UniProt P53992)", "T7 construct": "endogenous in cells; host or cells: DM93 cells (SILAC)", "in_short": "as §1"}, "Q9NW64": {"target": "T8, Q9NW64 (Homo sapiens, UniProt Q9NW64)", "T8 construct": "endogenous in cells; host or cells: DM93 cells (SILAC)", "T8 sequence (Q9NW64 whole entry)": "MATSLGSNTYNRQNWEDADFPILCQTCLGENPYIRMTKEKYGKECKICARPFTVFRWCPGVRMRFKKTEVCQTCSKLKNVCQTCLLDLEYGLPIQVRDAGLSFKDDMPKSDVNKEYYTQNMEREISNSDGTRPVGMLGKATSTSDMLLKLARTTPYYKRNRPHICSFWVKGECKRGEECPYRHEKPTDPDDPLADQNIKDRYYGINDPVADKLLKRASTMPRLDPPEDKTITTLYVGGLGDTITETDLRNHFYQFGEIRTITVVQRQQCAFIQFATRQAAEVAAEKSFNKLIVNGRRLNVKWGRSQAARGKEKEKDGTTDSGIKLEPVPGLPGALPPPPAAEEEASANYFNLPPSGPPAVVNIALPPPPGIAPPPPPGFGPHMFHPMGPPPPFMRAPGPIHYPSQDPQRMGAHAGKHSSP", "in_short": "as §1"}, "O14578": {"target": "T9, O14578 (Homo sapiens, UniProt O14578)", "T9 construct": "endogenous in cells; host or cells: DM93", "in_short": "as §1"}, "P24534": {"target": "T10, P24534 (Homo sapiens, UniProt P24534)", "T10 construct": "endogenous in cells; host or cells: DM93 (SILAC)", "in_short": "as §1"}, "O75521": {"target": "T11, O75521 (Homo sapiens, UniProt O75521)", "T11 construct": "endogenous in cells; host or cells: DM93 cells (SILAC)", "T11 sequence (O75521 39-394)": "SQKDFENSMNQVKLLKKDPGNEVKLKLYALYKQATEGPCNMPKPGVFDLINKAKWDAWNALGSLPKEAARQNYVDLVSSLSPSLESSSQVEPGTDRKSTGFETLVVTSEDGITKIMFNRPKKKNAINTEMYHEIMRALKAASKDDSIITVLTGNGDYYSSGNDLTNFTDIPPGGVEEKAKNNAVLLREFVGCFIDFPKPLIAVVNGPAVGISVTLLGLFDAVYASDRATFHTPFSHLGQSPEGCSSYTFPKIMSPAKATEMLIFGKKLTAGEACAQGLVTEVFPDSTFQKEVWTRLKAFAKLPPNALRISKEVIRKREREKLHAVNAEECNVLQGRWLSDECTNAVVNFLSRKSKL", "in_short": "as §1"}, "P24666": {"target": "T12, P24666 (Homo sapiens, UniProt P24666)", "T12 construct": "endogenous in cells; host or cells: DM93 (SILAC)", "T12 sequence (P24666 whole entry)": "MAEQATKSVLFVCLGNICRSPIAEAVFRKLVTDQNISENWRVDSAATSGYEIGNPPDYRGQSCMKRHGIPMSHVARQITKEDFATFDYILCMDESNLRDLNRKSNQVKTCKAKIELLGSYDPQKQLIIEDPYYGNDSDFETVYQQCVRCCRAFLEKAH", "in_short": "as §1"}, "P12268": {"target": "T13, P12268 (Homo sapiens, UniProt P12268)", "T13 construct": "endogenous in cells; host or cells: DM93 cells (SILAC)", "in_short": "as §1"}, "Q15154": {"target": "T14, Q15154 (Homo sapiens, UniProt Q15154)", "T14 construct": "performing SuTEx compound screening directly in cells; endogenous in cells; host or cells: DM93 cells (SILAC), soluble fraction", "T14 sequence (Q15154 whole entry)": "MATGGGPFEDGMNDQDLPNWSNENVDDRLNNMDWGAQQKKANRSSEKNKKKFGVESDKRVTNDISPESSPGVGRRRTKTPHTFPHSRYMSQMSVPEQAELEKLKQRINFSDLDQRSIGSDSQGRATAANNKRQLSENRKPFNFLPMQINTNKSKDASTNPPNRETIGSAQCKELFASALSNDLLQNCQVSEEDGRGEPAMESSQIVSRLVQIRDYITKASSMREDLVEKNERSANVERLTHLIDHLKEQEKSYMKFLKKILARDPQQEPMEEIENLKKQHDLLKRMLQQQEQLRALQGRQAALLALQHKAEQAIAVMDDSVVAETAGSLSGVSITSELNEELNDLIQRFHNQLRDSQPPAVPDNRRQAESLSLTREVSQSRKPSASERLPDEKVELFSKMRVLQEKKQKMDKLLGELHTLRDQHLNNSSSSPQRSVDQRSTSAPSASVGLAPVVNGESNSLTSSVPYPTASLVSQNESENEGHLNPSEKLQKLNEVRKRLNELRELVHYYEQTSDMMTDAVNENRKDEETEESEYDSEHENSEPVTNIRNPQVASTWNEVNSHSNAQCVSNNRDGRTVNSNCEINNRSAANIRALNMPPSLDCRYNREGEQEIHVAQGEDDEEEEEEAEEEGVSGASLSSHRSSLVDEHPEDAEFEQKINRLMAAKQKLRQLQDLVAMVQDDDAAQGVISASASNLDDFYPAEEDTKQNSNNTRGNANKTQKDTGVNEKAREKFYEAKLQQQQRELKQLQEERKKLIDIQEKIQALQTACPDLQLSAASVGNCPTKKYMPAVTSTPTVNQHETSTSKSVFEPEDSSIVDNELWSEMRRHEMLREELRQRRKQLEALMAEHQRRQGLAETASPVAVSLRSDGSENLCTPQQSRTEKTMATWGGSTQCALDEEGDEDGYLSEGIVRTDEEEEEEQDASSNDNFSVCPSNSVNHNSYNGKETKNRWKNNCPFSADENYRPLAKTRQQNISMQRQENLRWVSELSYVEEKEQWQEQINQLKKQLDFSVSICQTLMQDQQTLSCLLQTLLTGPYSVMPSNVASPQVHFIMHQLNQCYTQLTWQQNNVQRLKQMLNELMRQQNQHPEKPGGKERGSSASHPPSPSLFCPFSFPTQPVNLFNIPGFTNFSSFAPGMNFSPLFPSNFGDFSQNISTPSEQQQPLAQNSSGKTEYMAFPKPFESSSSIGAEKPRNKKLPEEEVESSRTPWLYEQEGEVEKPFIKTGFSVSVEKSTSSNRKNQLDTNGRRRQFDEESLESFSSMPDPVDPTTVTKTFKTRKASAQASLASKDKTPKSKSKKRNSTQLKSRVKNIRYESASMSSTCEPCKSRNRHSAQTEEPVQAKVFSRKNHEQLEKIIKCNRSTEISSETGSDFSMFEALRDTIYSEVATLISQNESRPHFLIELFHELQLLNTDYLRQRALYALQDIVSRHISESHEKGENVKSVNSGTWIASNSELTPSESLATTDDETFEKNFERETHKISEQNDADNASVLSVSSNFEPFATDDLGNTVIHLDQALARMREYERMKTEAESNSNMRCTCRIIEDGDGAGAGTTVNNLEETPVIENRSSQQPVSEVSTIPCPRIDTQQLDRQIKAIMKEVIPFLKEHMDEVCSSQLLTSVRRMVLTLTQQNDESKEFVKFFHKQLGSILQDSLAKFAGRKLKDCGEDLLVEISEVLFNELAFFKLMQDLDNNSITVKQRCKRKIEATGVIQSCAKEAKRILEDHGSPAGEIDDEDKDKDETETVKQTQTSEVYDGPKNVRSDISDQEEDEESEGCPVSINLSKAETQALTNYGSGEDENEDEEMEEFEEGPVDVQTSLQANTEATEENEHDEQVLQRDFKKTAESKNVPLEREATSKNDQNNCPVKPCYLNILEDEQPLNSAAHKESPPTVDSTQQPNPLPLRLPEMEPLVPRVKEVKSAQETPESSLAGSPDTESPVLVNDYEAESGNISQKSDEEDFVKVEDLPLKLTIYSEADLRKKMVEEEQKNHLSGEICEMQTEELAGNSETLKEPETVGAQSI", "in_short": "as §1"}, "Q969T7": {"target": "T15, Q969T7 (Homo sapiens, UniProt Q969T7)", "T15 construct": "endogenous in cells; host or cells: DM93 cells (SILAC), live-cell treatment", "in_short": "as §1"}, "Q8NBF2": {"target": "T16, Q8NBF2 (Homo sapiens, UniProt Q8NBF2)", "T16 construct": "endogenous in cells; host or cells: DM93 cells (SILAC), live-cell treatment", "in_short": "as §1"}, "O43776": {"target": "T17, O43776 (Homo sapiens, UniProt O43776)", "T17 construct": "endogenous in cells; host or cells: DM93", "T17 sequence (O43776 whole entry)": "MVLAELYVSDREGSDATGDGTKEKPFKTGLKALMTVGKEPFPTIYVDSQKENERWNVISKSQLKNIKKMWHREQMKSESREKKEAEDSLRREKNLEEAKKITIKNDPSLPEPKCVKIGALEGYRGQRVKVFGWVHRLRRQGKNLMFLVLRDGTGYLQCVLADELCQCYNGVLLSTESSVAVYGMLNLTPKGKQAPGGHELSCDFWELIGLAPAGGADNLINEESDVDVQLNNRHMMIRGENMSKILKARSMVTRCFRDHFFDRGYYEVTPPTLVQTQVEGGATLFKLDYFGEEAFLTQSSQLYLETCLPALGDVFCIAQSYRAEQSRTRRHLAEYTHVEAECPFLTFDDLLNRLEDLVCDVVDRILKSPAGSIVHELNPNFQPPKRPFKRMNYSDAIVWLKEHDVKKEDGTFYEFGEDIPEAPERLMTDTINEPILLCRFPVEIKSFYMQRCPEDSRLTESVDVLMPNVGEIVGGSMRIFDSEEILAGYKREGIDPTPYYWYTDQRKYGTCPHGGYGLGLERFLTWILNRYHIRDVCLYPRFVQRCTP", "in_short": "as §1"}, "O43156": {"target": "T18, O43156 (Homo sapiens, UniProt O43156)", "T18 construct": "endogenous in cells; host or cells: DM93", "in_short": "as §1"}}, "data": [{"smiles": "O=C(c1ccc(S(=O)(=O)n2cncn2)cc1)N1CCC(c2ccccc2)CC1", "note": "[HHS-0701, (4-((1H-1,2,4-triazol-1-yl)sulfonyl)phenyl)(4-phenylpiperidin-1-yl)methanone]", "values": [{"measurement": "liganded tyrosine site 70", "setting": "Q9H223", "value": "HHS0701.Y (tyrosine sites that showed >80% reductions (SR >5) in probe labeling in cells treated with compounds (liganded sites))"}, {"measurement": "liganded tyrosine site 261", "setting": "Q92620", "value": "HHS0701.Y (tyrosine sites that showed >80% reductions (SR >5) in probe labeling in cells treated with compounds (liganded sites))"}, {"measurement": "liganded tyrosine site 101", "setting": "Q04837", "value": "HHS0701.Y (tyrosine sites that showed >80% reductions (SR >5) in probe labeling in cells treated with compounds (liganded sites))"}, {"measurement": "liganded tyrosine site 119", "setting": "Q04837", "value": "HHS0701.Y (tyrosine sites that showed >80% reductions (SR >5) in probe labeling in cells treated with compounds (liganded sites))"}]}, {"smiles": "O=C(NC1CCCCC1)c1ccc(S(=O)(=O)n2cncn2)cc1", "note": "[HHS-0301, 4-((1H-1,2,4-triazol-1-yl)sulfonyl)-N-cyclohexylbenzamide]", "values": [{"measurement": "liganded tyrosine site 451", "setting": "Q06203", "value": "HHS0301.Y (tyrosine sites that showed >80% reductions (SR >5) in probe labeling in cells treated with compounds (liganded sites))"}, {"measurement": "liganded tyrosine site 111", "setting": "Q9BUJ2", "value": "HHS0301.Y|HHS0701.Y (tyrosine sites that showed >80% reductions (SR >5) in probe labeling in cells treated with compounds (liganded sites))"}, {"measurement": "liganded tyrosine site 173", "setting": "P49585", "value": "HHS0301.Y (tyrosine sites that showed >80% reductions (SR >5) in probe labeling in cells treated with compounds (liganded sites))"}, {"measurement": "liganded tyrosine site 300", "setting": "P53992", "value": "HHS0301.Y (tyrosine sites that showed >80% reductions (SR >5) in probe labeling in cells treated with compounds (liganded sites))"}, {"measurement": "liganded tyrosine site 116", "setting": "Q9NW64", "value": "HHS0301.Y (tyrosine sites that showed >80% reductions (SR >5) in probe labeling in cells treated with compounds (liganded sites))"}, {"measurement": "liganded tyrosine site 818", "setting": "O14578", "value": "HHS0301.Y (tyrosine sites that showed >80% reductions (SR >5) in probe labeling in cells treated with compounds (liganded sites))"}]}, {"smiles": "O=C(NCC1CC1)c1ccc(S(=O)(=O)n2cncn2)cc1", "note": "[HHS-0201, 4-((1H-1,2,4-triazol-1-yl)sulfonyl)-N-(cyclopropylmethyl)benzamide]", "values": [{"measurement": "liganded tyrosine site 18", "setting": "P24534", "value": "HHS0201.Y|HHS0401.Y|HHS0701.Y (tyrosine sites that showed >80% reductions (SR >5) in probe labeling in cells treated with compounds (liganded sites))"}, {"measurement": "liganded tyrosine site 285", "setting": "O75521", "value": "HHS0201.Y|HHS0301.Y|HHS0401.Y (tyrosine sites that showed >80% reductions (SR >5) in probe labeling in cells treated with compounds (liganded sites))"}, {"measurement": "liganded tyrosine site 88", "setting": "P24666", "value": "HHS0201.Y|HHS0401.Y|HHS0701.Y (tyrosine sites that showed >80% reductions (SR >5) in probe labeling in cells treated with compounds (liganded sites))"}]}, {"smiles": "O=C(NCc1ccccc1)c1ccc(S(=O)(=O)n2cncn2)cc1", "note": "[HHS-0401, 4-((1H-1,2,4-triazol-1-yl)sulfonyl)-N-benzylbenzamide]", "values": [{"measurement": "liganded tyrosine site 233", "setting": "P12268", "value": "HHS0401.Y (tyrosine sites that showed >80% reductions (SR >5) in probe labeling in cells treated with compounds (liganded sites))"}, {"measurement": "liganded tyrosine site 1424", "setting": "Q15154", "value": "HHS0401.Y|HHS0701.Y (tyrosine sites that showed >80% reductions (SR >5) in probe labeling in cells treated with compounds (liganded sites))"}]}, {"smiles": "O=C(NC1CC1)c1ccc(S(=O)(=O)n2cncn2)cc1", "note": "[HHS-0101, 4-((1H-1,2,4-triazol-1-yl)sulfonyl)-N-cyclopropylbenzamide]", "values": [{"measurement": "liganded tyrosine site 85", "setting": "Q969T7", "value": "HHS0101.Y (tyrosine sites that showed >80% reductions (SR >5) in probe labeling in cells treated with compounds (liganded sites))"}, {"measurement": "liganded tyrosine site 23", "setting": "Q8NBF2", "value": "HHS0101.Y (tyrosine sites that showed >80% reductions (SR >5) in probe labeling in cells treated with compounds (liganded sites))"}, {"measurement": "liganded tyrosine site 45", "setting": "O43776", "value": "HHS0101.Y (tyrosine sites that showed >80% reductions (SR >5) in probe labeling in cells treated with compounds (liganded sites))"}, {"measurement": "liganded tyrosine site 51", "setting": "O43156", "value": "HHS0101.Y|HHS0401.Y|HHS0701.Y (tyrosine sites that showed >80% reductions (SR >5) in probe labeling in cells treated with compounds (liganded sites))"}]}]}
